According to paper PMC5698418 (Nature Communications, 2017):
Where a name gives a salt, the structure may show the parent alone. Read-outs that look alike come from different tables or passages of the source.

Tested on: BDNF-induced nuclear Arc expression in primary cortical neurons
Assay: Chemogenomic screen: high-content image-based assay of BDNF-induced nuclear Arc expression (96-well)
Type: cell-based, mouse
How it was run: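 DIV13 mouse primary cortical neurons (30,000 cells/well) are treated with compound at 16.7 µM and BDNF, in three biological replicates. Arc and acetyl-H3K9 are immunostained and imaged at ×40, and nuclear Arc signal is quantified automatically using acetyl-H3K9 as the nuclear mask.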

[1] = nuclear Arc-positive cells relative to DMSO + BDNF control, negative values = decrease
[2] = chemogenomic (SMART) screen, BDNF-induced nuclear Arc expression, primary cortical neurons, BDNF control 19.5
[3] = BDNF-induced nuclear Arc expression, primary cortical neurons, chemogenomic screen
[4] = nuclear Arc-positive cells relative to DMSO control (BDNF), negative = decrease

C[C@]12COC(=O)C[C@@H]1CC[C@@H]1[C@@H]2CC[C@@]2(C)[C@H]1CC[C@]2(C)O [Oxandrolone]
Percentage of cell with nuclear Arc immunostaining above 2σ threshold: 33.5%
Fold-change — Normalized to DMSO control (BDNF) [1]: 1.7 fold

Dihydroergotoxine mesylate
Percentage of cell with nuclear Arc immunostaining above 2σ threshold [2]: 24.3%
Fold-change — Normalized to DMSO control (BDNF) [1]: 1.2 fold

CN(C)CCC(c1ccc(Cl)cc1)c1ccccn1 (stereo not drawn) [Chlorphenamine]
Percentage of cell with nuclear Arc immunostaining above 2σ threshold [2]: 31.0%
Fold-change — Normalized to DMSO control (BDNF) [1]: 1.6 fold

Cc1ncc(CSSCc2cnc(C)c(O)c2CO)c(CO)c1O [Pyrithioxine]
Percentage of cell with nuclear Arc immunostaining above 2σ threshold [2]: 21.3%
Fold-change — Normalized to DMSO control (BDNF) [1]: 1.1 fold

CCOC(=O)c1ncn2c1CN(C)C(=O)c1cc(F)ccc1-2 [Flumazenil]
Percentage of cell with nuclear Arc immunostaining above 2σ threshold [2]: 32.1%
Fold-change — Normalized to DMSO control (BDNF) [1]: 1.6 fold

CN[C@H]1CC[C@@H](c2ccc(Cl)c(Cl)c2)c2ccccc21 [Sertraline]
Percentage of cell with nuclear Arc immunostaining above 2σ threshold [3]: 0.0%

O=c1[nH]c2ccccc2n1CCCN1CCC(n2c(=O)[nH]c3cc(Cl)ccc32)CC1 [Domperidone]
Percentage of cell with nuclear Arc immunostaining above 2σ threshold [2]: 15.3%

Nc1ccn([C@@H]2O[C@H](CO)[C@@H](O)[C@H]2O)c(=O)n1 [Cytidine]
Percentage of cell with nuclear Arc immunostaining above 2σ threshold [2]: 34.8%
Fold-change — Normalized to DMSO control (BDNF) [1]: 1.8 fold

Oc1ccc(/C=C/c2cc(O)cc(O)c2)cc1 [Resveratrol]
Percentage of cell with nuclear Arc immunostaining above 2σ threshold [2]: 36.0%
Fold-change — Normalized to DMSO control (BDNF) [1]: 1.8 fold

O=C(CCNNC(=O)c1ccncc1)NCc1ccccc1 [Nialamide]
Percentage of cell with nuclear Arc immunostaining above 2σ threshold [2]: 29.9%
Fold-change — Normalized to DMSO control (BDNF) [1]: 1.5 fold

C[N+]12CCC(CC1)C(OC(=O)C(O)(c1ccccc1)c1ccccc1)C2 (stereo not drawn) [Clidinium bromide]
Percentage of cell with nuclear Arc immunostaining above 2σ threshold [2]: 24.4%
Fold-change — Normalized to DMSO control (BDNF) [1]: 1.2 fold

Cn1sc(=O)n(Cc2ccccc2)c1=O [TDZD-8]
Percentage of cell with nuclear Arc immunostaining above 2σ threshold [3]: 1.7%
Fold-change — Normalized to DMSO control (BDNF) [4]: -11.7 fold

CC(C)C[C@H](CN)CC(=O)O [Pregabalin]
Percentage of cell with nuclear Arc immunostaining above 2σ threshold: 8.5%

Cc1ccc2c(c1)c1c3n2CCNC3CCC1 (stereo not drawn) [Pirlindole]
Percentage of cell with nuclear Arc immunostaining above 2σ threshold [2]: 15.3%

OC(CNc1ccccc1)Cn1c2ccc(Br)cc2c2cc(Br)ccc21 (stereo not drawn) [P7C3]
Percentage of cell with nuclear Arc immunostaining above 2σ threshold: 1.7%
Fold-change — Normalized to DMSO control (BDNF) [4]: -11.2 fold

COc1cc2c(cc1OC)-c1cc3ccc(OC)c(OC)c3c[n+]1CC2 [Palmatine]
Percentage of cell with nuclear Arc immunostaining above 2σ threshold: 1.1%
Fold-change — Normalized to DMSO control (BDNF) [4]: -17.5 fold

CN(C)CCCC1(c2ccc(F)cc2)OCc2cc(C#N)ccc21 (stereo not drawn) [Citalopram]
Percentage of cell with nuclear Arc immunostaining above 2σ threshold [3]: 6.1%

CCC1(C)CC(=O)NC1=O (stereo not drawn) [Ethosuximide]
Percentage of cell with nuclear Arc immunostaining above 2σ threshold [2]: 21.8%
Fold-change — Normalized to DMSO control (BDNF) [1]: 1.1 fold

CN1CCN(C2=Nc3ccccc3Oc3ccc(Cl)cc32)CC1 [Loxapine]
Percentage of cell with nuclear Arc immunostaining above 2σ threshold [2]: 21.2%
Fold-change — Normalized to DMSO control (BDNF) [1]: 1.1 fold

O=C(CCCCCCC(=O)Nc1ccccc1)NO [Vorinostat]
Percentage of cell with nuclear Arc immunostaining above 2σ threshold [2]: 19.8%
Fold-change — Normalized to DMSO control (BDNF) [1]: 1.0 fold

NC(=O)N1c2ccccc2C=Cc2ccccc21 [Carbamazepine]
Percentage of cell with nuclear Arc immunostaining above 2σ threshold [3]: 7.2%

NC(=O)OCC(COC(N)=O)c1ccccc1 [Felbamate]
Percentage of cell with nuclear Arc immunostaining above 2σ threshold [2]: 14.3%

COC1=CC(=O)O[C@@H](/C=C/c2ccc3c(c2)OCO3)C1 [Kavahin]
Percentage of cell with nuclear Arc immunostaining above 2σ threshold: 36.5%
Fold-change — Normalized to DMSO control (BDNF) [1]: 1.9 fold

CC(=O)[C@H]1CC[C@H]2[C@@H]3CC[C@H]4C[C@](C)(O)CC[C@]4(C)[C@H]3CC[C@]12C [Ganaxolone]
Percentage of cell with nuclear Arc immunostaining above 2σ threshold: 22.6%
Fold-change — Normalized to DMSO control (BDNF) [1]: 1.2 fold

CSc1ccc2c(c1)N(CCC1CCCCN1C)c1ccccc1S2 (stereo not drawn) [Thioridazine]
Percentage of cell with nuclear Arc immunostaining above 2σ threshold [3]: 0.0%

Nc1nnc(-c2cccc(Cl)c2Cl)c(N)n1 [Lamotrigine]
Percentage of cell with nuclear Arc immunostaining above 2σ threshold [3]: 4.8%

COCCCC/C(=N\OCCN)c1ccc(C(F)(F)F)cc1 [Fluvoxamine]
Percentage of cell with nuclear Arc immunostaining above 2σ threshold [3]: 8.5%

COc1cc2c(cc1OC)C1CC(=O)C(CC(C)C)CN1CC2 (stereo not drawn) [Tetrabenazine]
Percentage of cell with nuclear Arc immunostaining above 2σ threshold [2]: 24.9%
Fold-change — Normalized to DMSO control (BDNF) [1]: 1.3 fold

O=C(COc1ccc(Cl)cc1)N1CCN(Cc2ccc3c(c2)OCO3)CC1 [Fipexide]
Percentage of cell with nuclear Arc immunostaining above 2σ threshold [2]: 41.7%
Fold-change — Normalized to DMSO control (BDNF) [1]: 2.1 fold

Cn1c(=O)c2[nH]cnc2n(C)c1=O [Aminophylline]
Percentage of cell with nuclear Arc immunostaining above 2σ threshold [2]: 23.1%
Fold-change — Normalized to DMSO control (BDNF) [1]: 1.2 fold

NC(=O)CCC/N=C(\c1ccc(Cl)cc1)c1cc(F)ccc1O [Progabide]
Percentage of cell with nuclear Arc immunostaining above 2σ threshold [2]: 19.5%
Fold-change — Normalized to DMSO control (BDNF) [1]: 1.0 fold

NC12CC3CC(CC(C3)C1)C2 [Amantadine]
Percentage of cell with nuclear Arc immunostaining above 2σ threshold [2]: 32.9%
Fold-change — Normalized to DMSO control (BDNF) [1]: 1.7 fold

C/C=C1\[C@H]2C=C(C)C[C@]1(N)c1ccc(=O)[nH]c1C2 [Huperzine A]
Percentage of cell with nuclear Arc immunostaining above 2σ threshold [2]: 14.8%

O=C1CC2(CCCC2)CC(=O)N1CCCCN1CCN(c2ncccn2)CC1 [Buspirone]
Percentage of cell with nuclear Arc immunostaining above 2σ threshold [3]: 10.3%

O=c1cccc2n1C[C@@H]1CNC[C@H]2C1 [Cytisine]
Percentage of cell with nuclear Arc immunostaining above 2σ threshold: 15.7%

CCN(CC)C(C)CN1c2ccccc2Sc2ccccc21 (stereo not drawn) [Ethopropazine]
Percentage of cell with nuclear Arc immunostaining above 2σ threshold [2]: 27.2%
Fold-change — Normalized to DMSO control (BDNF) [1]: 1.4 fold

CN1C[C@H](C(=O)N[C@]2(C)O[C@@]3(O)[C@@H]4CCCN4C(=O)[C@H](Cc4ccccc4)N3C2=O)C[C@@H]2c3cccc4[nH]cc(c34)C[C@H]21.CN1C[C@H](C(=O)N[C@]2(C)O[C@@]3(O)[C@@H]4CCCN4C(=O)[C@H](Cc4ccccc4)N3C2=O)C[C@@H]2c3cccc4[nH]cc(c34)C[C@H]21.O=C(O)C(O)C(O)C(=O)O [Dihydroergotamine tartrate]
Percentage of cell with nuclear Arc immunostaining above 2σ threshold [2]: 22.0%
Fold-change — Normalized to DMSO control (BDNF) [1]: 1.1 fold

COc1ccc(C2CNC(=O)C2)cc1OC1CCCC1 (stereo not drawn) [Rolipram]
Percentage of cell with nuclear Arc immunostaining above 2σ threshold [2]: 21.4%
Fold-change — Normalized to DMSO control (BDNF) [1]: 1.1 fold

CC(CN(C)C)CN1c2ccccc2CCc2ccccc21 (stereo not drawn) [Trimipramine maleate]
Percentage of cell with nuclear Arc immunostaining above 2σ threshold [2]: 21.9%
Fold-change — Normalized to DMSO control (BDNF) [1]: 1.1 fold

CN(C)CC/C=C1/c2ccccc2Sc2ccc(Cl)cc21 [Chlorprothixene]
Percentage of cell with nuclear Arc immunostaining above 2σ threshold [3]: 1.0%

CC1=NN=C(c2ccc(N)cc2)c2cc3c(cc2C1)OCO3 [GYKI-52466]
Percentage of cell with nuclear Arc immunostaining above 2σ threshold [2]: 12.0%

NS(=O)(=O)c1cc2c(cc1Cl)NC(C1CC3C=CC1C3)NS2(=O)=O (stereo not drawn) [Cyclothiazide]
Percentage of cell with nuclear Arc immunostaining above 2σ threshold [3]: 8.4%

CC1(C)O[C@@H]2[C@@H](CO[C@@]3(COS(N)(=O)=O)OC(C)(C)O[C@@H]23)O1 [Topiramate]
Percentage of cell with nuclear Arc immunostaining above 2σ threshold [3]: 8.8%

CO[C@]12C[C@@H](COC(=O)c3cncc(Br)c3)CN(C)[C@@H]1Cc1cn(C)c3cccc2c13 [Nicergoline]
Percentage of cell with nuclear Arc immunostaining above 2σ threshold [3]: 6.1%

OCCN1CCN(CCCN2c3ccccc3Sc3ccc(C(F)(F)F)cc32)CC1 [Fluphenazine]
Percentage of cell with nuclear Arc immunostaining above 2σ threshold [3]: 0.3%

CC(=O)NCCCS(=O)(=O)O [Acamprosate]
Percentage of cell with nuclear Arc immunostaining above 2σ threshold: 9.4%

Nc1c2c(nc3ccccc13)CCCC2O (stereo not drawn) [Hydroxytacrine]
Percentage of cell with nuclear Arc immunostaining above 2σ threshold [2]: 36.9%
Fold-change — Normalized to DMSO control (BDNF) [1]: 1.9 fold

CN(C)CCCN1c2ccccc2Sc2ccccc21 [Promazine]
Percentage of cell with nuclear Arc immunostaining above 2σ threshold [3]: 9.7%

CCOC(=O)Nc1ccc(NCc2ccc(F)cc2)cc1N [Retigabine]
Fold-change — Normalized to DMSO control (BDNF): 1.7 fold
Percentage of cell with nuclear Arc immunostaining above 2σ threshold: 32.9%

CCCC(CCC)C(=O)O [Valproate]
Percentage of cell with nuclear Arc immunostaining above 2σ threshold [3]: 8.4%

CNC(=O)[C@@H](Cc1ccccc1)N(C)C(=O)[C@@H](Cc1ccc2ccccc2c1)N(C)C(=O)/C=C/CC(C)(C)N [Tabimorelin]
Percentage of cell with nuclear Arc immunostaining above 2σ threshold [3]: 7.1%

O=C1[C@H]2CCCC[C@H]2C(=O)N1CCCCN1CCN(c2nsc3ccccc23)CC1 [Perospirone]
Percentage of cell with nuclear Arc immunostaining above 2σ threshold [2]: 17.9%

COC[C@@H](NC(C)=O)C(=O)NCc1ccccc1 [Lacosamide]
Percentage of cell with nuclear Arc immunostaining above 2σ threshold: 6.7%
